This assay has as its target T1, human recombinant P2X7 receptor (Homo sapiens, UniProt Q99572).
T1 construct: expressed in transfected cells
T1 sequence (Q99572 1-595): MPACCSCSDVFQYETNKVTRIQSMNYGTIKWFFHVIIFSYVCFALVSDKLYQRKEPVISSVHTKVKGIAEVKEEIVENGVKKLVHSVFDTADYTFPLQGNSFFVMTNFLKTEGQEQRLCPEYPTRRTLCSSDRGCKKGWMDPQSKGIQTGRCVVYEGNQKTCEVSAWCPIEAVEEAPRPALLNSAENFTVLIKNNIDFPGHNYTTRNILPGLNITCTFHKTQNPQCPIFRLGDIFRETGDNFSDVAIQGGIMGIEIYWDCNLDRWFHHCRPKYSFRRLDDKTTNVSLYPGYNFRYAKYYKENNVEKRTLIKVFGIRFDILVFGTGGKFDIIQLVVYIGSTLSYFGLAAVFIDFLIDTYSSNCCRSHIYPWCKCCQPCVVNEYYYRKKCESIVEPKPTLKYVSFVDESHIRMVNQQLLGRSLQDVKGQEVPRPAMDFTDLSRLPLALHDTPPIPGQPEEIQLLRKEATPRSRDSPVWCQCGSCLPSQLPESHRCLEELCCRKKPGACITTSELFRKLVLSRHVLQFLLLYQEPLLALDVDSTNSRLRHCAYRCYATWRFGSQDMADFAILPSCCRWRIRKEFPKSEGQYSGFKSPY
Briefly: YO-PRO assay (YO-PRO-1 uptake) in HEK cells stably expressing P2X7. The format is cell-based. As to conditions: HEK-293 cells expressing human recombinant P2X7 receptor; ATP 250 μM, 90 minutes; YO-PRO-1 fluorescence (FLIPR tetra); read-out: IC50 (antagonistic activity with respect to the P2X7 receptor). The procedure: Cell line generation was performed in general according to established molecular cloning protocols. Specifically, RNA was extracted from human whole blood using the Qiagen RNeasy kit (Qiagen, CH) according to the manufacturer's instructions. Subsequently cDNA was made (Superscript II, Invitrogen AG, CH) and the human P2X7 gene (genbank ref. BC011913) was amplified with the following primers: [NT] and [NT] The amplified sequence was subsequently ligated into a pcDNA3.1 (+) NotI, NheI digested plasmid. […] Following a 24 h exposure to DNA, cells were trypsinized and re-seeded at low density in the presence of 250 μg Geneticin. Geneticin resistant cells were then selected during two consecutive rounds of cloning by serial limiting dilution with visual inspection. Individual clones were screened for P2X7 expression by applying ATP and recording the resultant uptake of YO-[…]. Specific cell clones were chosen based on RNA and protein expression. HEK cells stably expressing P2X7 were used to screen drugs using the YO-[…] assay. Cells were grown to confluency in adherent culture at 37° C. in a humidified 5% CO2 incubator (split 1/5 every 3-4 days with DMEM, 10% FCS, 1% Penicillin/Streptomycin, 250 μg/ml Geneticin). Adherent cells were detached by incubation with Trypsine (1 ml per 165 cm^2 dish) for 2 minutes, then washed off with 10 ml PBS (without Mg^2+ and Ca^2+), and resuspended in DMEM, 10% FCS, 1% Penicillin/Streptomycin, no Geneticin. 10'000 cells per well (48 hours before the assay) or 25'000 cells per well (Vi-cell XR (Beckman Coulter) (24 hours before the assay) in 50 μl full medium were seeded on 384-well black-wall, clear bottom plates, that were coated before with 10 μl per well Poly-L-Lysine, incubated for 30-60 minutes at 37° C. and washed once with PBS. Medium was removed from cells and 50 μl of assay buffer containing 0.5 μM YO-[…] was added into the wells. Solutions of antagonist compounds were prepared by serial dilutions of a 10 mM DMSO solution of the antagonist into PBS using a BioMek (Beckman Coulter). Each concentration was performed in duplicate. […] During this time period, four time points were taken. Each time point comprised the average of several measurements made within a few seconds. […] The FLIPR tetra was equipped with Molecular Devices Screen Works system control software to define and run experimental protocols. […] For IC50 measurements the maximum intensity is plotted against the concentration of compound to determine IC50 values.

As usually defined, the IC50 is the concentration that inhibits the measured activity by half. As for `O=C(NCC1(O)CCCCC1)c1cc(Oc2ccnc(=O)[nH]2)ccc1Cl` [Example 119, 2-Chloro-N-(1-hydroxy-cyclohexylmethyl)-5-(2-oxo-2,3-dihydro-pyrimidin-4-yloxy)-benzamide], the IC50 came to 0.796 µM.
Next, `CNc1cncc(Oc2ccc(Cl)c(C(=O)NCC3(O)CCCCC3)c2)n1` [Example 124, 2-Chloro-N-(1-hydroxy-cyclohexylmethyl)-5-(6-methylamino-pyrazin-2-yloxy)-benzamide]: 0.163 µM; `Cn1nccc1Nc1ccc(Cl)c(C(=O)NCC2(O)CCCCC2)c1` [Example 100, 2-Chloro-N-(1-hydroxy-cyclohexylmethyl)-5-(2-methyl-2H-pyrazol-3-ylamino)-benzamide]: 0.217 µM.
For `O=C(NCC1(O)CCCCC1)c1cc(N(Cc2ccccc2)c2cc[nH]c(=O)n2)ccc1Cl` [Example 30, 5-[Benzyl-(2-oxo-1,2-dihydro-pyrimidin-4-yl)-amino]-2-chloro-N-(1-hydroxy-cyclohexylmethyl)-benzamide] the value was 0.181 µM; for `O=C(NCC1(O)CCCCC1)c1cc(Oc2ccnc(Cl)n2)ccc1Cl` [Example 115, 2-Chloro-5-(2-chloro-pyrimidin-4-yloxy)-N-(1-hydroxy-cyclohexylmethyl)-benzamide], 0.191 µM; for `O=C(NCC1(O)CCCCC1)c1cc(Oc2ccccn2)ccc1Cl` [Example 105, 2-Chloro-N-(1-hydroxy-cyclohexylmethyl)-5-(pyridin-2-yloxy)-benzamide], 0.047 µM.
For `O=C(NCC1(O)CCCCC1)c1cc(Cc2ccccn2)ccc1Cl` [Example 145, 2-Chloro-N-(1-hydroxy-cyclohexylmethyl)-5-pyridin-2-ylmethyl-benzamide] the value was 0.021 µM; for `CN(c1ccc(Cl)c(C(=O)NCC2(O)CCCCCCC2)c1)c1ccnc(Cl)n1` [Example 47, 2-Chloro-5-[(2-chloro-pyrimidin-4-yl)-methyl-amino]-N-(1-hydroxy-cyclooctylmethyl)-benzamide], 0.116 µM; for `O=C(NCC1(O)CCCCC1)c1cc(Cn2cccnc2=O)ccc1Cl` [Example 143, 2-Chloro-N-(1-hydroxy-cyclohexylmethyl)-5-(2-oxo-2H-pyrimidin-1-ylmethyl)-benzamide], 0.377 µM.
In the case of `COc1ccc(Oc2ccc(Cl)c(C(=O)NCC3(O)CCCCC3)c2)nn1` [Example 128, 2-Chloro-N-(1-hydroxy-cyclohexylmethyl)-5-(6-methoxy-pyridazin-3-yloxy)-benzamide], the IC50 came to 0.03 µM.
Take `COc1cccc(Oc2ccc(Cl)c(C(=O)NCC3(O)CCCCC3)c2)n1` [Example 111, 2-Chloro-N-(1-hydroxy-cyclohexylmethyl)-5-(6-methoxy-pyridin-2-yloxy)-benzamide]: the IC50 amounted to 0.021 µM.
With `CN(c1ccc(Cl)c(C(=O)NCC2(O)CCCCC2)c1)c1cnc(Cl)cn1` [Example 87, 2-Chloro-5-[(5-chloro-pyrazin-2-yl)-methyl-amino]-N-(1-hydroxy-cyclohexylmethyl)-benzamide], the IC50 was found to be 0.19 µM.
For `CN(c1ccc(Cl)c(C(=O)N[C@H](CO)C2CCCCC2)c1)c1ccnc(Cl)n1` [Example 43, 2-Chloro-5-[(2-chloro-pyrimidin-4-yl)-methyl-amino]-N—((S)-1-cyclohexyl-2-hydroxy-ethyl)-benzamide] the value was 0.136 µM; for `CN(c1ccc(Cl)c(C(=O)NCC2(O)CCCCC2)c1)c1nccnc1Cl` [Example 86, 2-Chloro-5-[(3-chloro-pyrazin-2-yl)-methyl-amino]-N-(1-hydroxy-cyclohexylmethyl)-benzamide], 0.061 µM; for `CC(O)(c1ccc(Cl)c(C(=O)NCC2(O)CCCCC2)c1)c1cc[nH]c(=O)n1` (racemic) [Example 156, rac-2-Chloro-N-(1-hydroxy-cyclohexylmethyl)-5-[1-hydroxy-1-(2-oxo-1,2-dihydro-pyrimidin-4-yl)-ethyl]-benzamide], 0.014 µM.
Next, `CNc1nccc(N(C)c2ccc(Cl)c(C(=O)NCC3(O)CCCCC3)c2)n1` [Example 14, 2-Chloro-N-(1-hydroxy-cyclohexylmethyl)-5-[methyl-(2-methylamino-pyrimidin-4-yl)-amino]-benzamide]: 0.127 µM; `CC(O)(c1ccc(Cl)c(C(=O)NCC2(O)CCCCC2)c1)c1cc[nH]c(=O)n1` (single isomer, unassigned) [Example 158]: 0.066 µM; `COCCN(c1ccc(Cl)c(C(=O)NCC2(O)CCCCC2)c1)c1cc[nH]c(=O)n1` [Example 33, 2-Chloro-N-(1-hydroxy-cyclohexylmethyl)-5-[(2-methoxy-ethyl)-(2-oxo-1,2-dihydro-pyrimidin-4-yl)-amino]-benzamide]: 0.183 µM.
For `CN(c1ccc(Cl)c(C(=O)NCC2(O)CCCCCC2)c1)c1ccnc(Cl)n1` [Example 45, 2-Chloro-5-[(2-chloro-pyrimidin-4-yl)-methyl-amino]-N-(1-hydroxy-cycloheptylmethyl)-benzamide] the value was 0.089 µM; for `O=C(NCC1(O)CCCCC1)c1cc(Oc2cc(F)ccn2)ccc1Cl` [Example 103, 2-Chloro-5-(4-fluoro-pyridin-2-yloxy)-N-(1-hydroxy-cyclohexylmethyl)-benzamide], 0.046 µM; for `Cc1ccc(N(C)c2cc[nH]c(=O)n2)cc1C(=O)NCC1(O)CCCCC1` [Example 155, N-(1-Hydroxy-cyclohexylmethyl)-2-methyl-5-[methyl-(2-oxo-1,2-dihydro-pyrimidin-4-yl)-amino]-benzamide], 0.199 µM.
On to `O=C(NCC1(O)CCCCC1)c1cc(N(Cc2ccccc2)c2ccnc(Cl)n2)ccc1Cl` [Example 29, 5-[Benzyl-(2-chloro-pyrimidin-4-yl)-amino]-2-chloro-N-(1-hydroxy-cyclohexylmethyl)-benzamide], for which the IC50 is 0.456 µM.
Consider `O=C(NCC1(O)CCCCC1)c1cc(Nc2ccnc(O)n2)ccc1Cl` [Example 16, 2-Chloro-N-(1-hydroxy-cyclohexylmethyl)-5-(2-hydroxypyrimidin-4-ylamino)-benzamide], for which the IC50 was 0.073 µM.
For `Cc1ccc(N(C)c2ccnc(Cl)n2)cc1C(=O)NCC1(O)CCCCC1` [Example 153, 5-[(2-Chloro-pyrimidin-4-yl)-methyl-amino]-N-(1-hydroxy-cyclohexylmethyl)-2-methyl-benzamide] the value was 0.702 µM; for `O=C(NCC1(O)CCCCC1)c1cc(Nc2ccccc2)ccc1Cl` [Example 1, 2-Chloro-N-(1-hydroxy-cyclohexylmethyl)-5-phenylamino-benzamide], 0.111 µM; for `COc1nccc(N(Cc2ccccc2)c2ccc(Cl)c(C(=O)NCC3(O)CCCCC3)c2)n1` [Example 31, 5-[Benzyl-(2-methoxy-pyrimidin-4-yl)-amino]-2-chloro-N-(1-hydroxy-cyclohexylmethyl)-benzamide], 0.566 µM.
Consider `CNc1cncc(N(C)c2ccc(Cl)c(C(=O)NCC3(O)CCCCC3)c2)n1` [Example 83, 2-Chloro-N-(1-hydroxy-cyclohexylmethyl)-5-[methyl-(6-methylamino-pyrazin-2-yl)-amino]-benzamide], for which the IC50 stood at 0.057 µM.
Next, `O=C(NCC1(O)CCCCC1)c1cc(Oc2cccc(F)n2)ccc1Cl` [Example 102, 2-Chloro-5-(6-fluoro-pyridin-2-yloxy)-N-(1-hydroxy-cyclohexylmethyl)-benzamide]: 0.037 µM.
For `O=C(NCC1(O)CCCCC1)c1cc(Nc2cncnc2)ccc1Cl` [Example 76, 2-Chloro-N-(1-hydroxy-cyclohexylmethyl)-5-(pyrimidin-5-ylamino)-benzamide] the value was 0.418 µM.

The record behind these values is US20140073651A1, “BENZAMIDE DERIVATIVES AS P2X7 RECEPTOR ANTAGONISTS” (Actelion Pharmaceuticals Ltd., priority 2011, published 2014).
